Tested on: human stem cell-derived cardiomyocytes
Method: First, step G-1, replaces the maintenance medium in the MEA plate that has undergone the 3rd incubation step (step F-3) with a fresh maintenance medium, and places the MEA plate into the cell culture incubator at 37° C. and 5% CO2 for 3 to 5 hours (preferably 3 hours) for stabilization of cells.
Next, the first set of measurement values on beat rate, spike amplitude, and field potential duration of the human stem cell-derived cardiomyocytes are taken (step G-2) with the MEA measurement device for the MEA plate that has undergone cell stabilization step (step G-1).
After the completion of the first measurement, a portion of the maintenance medium, which corresponds to 1/10 of the total volume in the well, is removed from wells of the MEA plate that has undergone the stabilization process. […]
Here, raw files stored in the MEA measurement device program are loaded, and the desired section of the data is re-recorded and saved as a CSV file. Then the drug's effect on the field potential of cardiomyocytes is evaluated by the changes in the reaction parameter, based on the first and second measurement values which include beat interval, spike amplitude, and field potential duration, to various concentrations of the drug.
In addition, the cardiac toxicity of a drug can be determined through changes in FPDcF and spike amplitude. […]

With `Cc1cccc(C)c1OCC(C)N` (stereo not shown) [Mexiletine] as the compound, how does the “change in spike amplitude” value read?
The value was “decrease in the spike amplitude according to the drug concentration”.
